From patent publication US10738061B2, “Inhibitors of RAD52 recombination protein and methods using same” (Drexel University, priority 2015, dated 2020)

Legend:
salmon sperm DNA = assay: Acridine orange displacement assay for DNA binding
Experimental: The selected compounds were tested their abilities to bind DNA to rule out DNA binding as an undesired mechanism of action. The compounds in varied concentrations were added into 30 μl reaction mixtures containing 50 nM acridine orange and 6 μg/ml salmon sperm DNA, 10 mM HEPES, pH 7.5; 1 mM EDTA pH 7.5; 100 mM NaCl in 384-well plates, and the reactions were incubated at room temperature for 20 min followed by fluorescence polarization measurement using an EnVision (Perkin Elmer) equipped with a 480 nm excitation filter and 535 nm S and P emission filters with a D505 FP/D535 dichroic mirror. Mitoxantrone (10 μM) was used as a positive control. The S and P values are processed with the standard fluorescence polarization calculation formula (mP=1000*(S-G*P)/(S+G*P) where G is the G-factor and is approximately 1.

[1] = test system: BCR-ABL1-positive BRCA1-deficient 32Dc13 murine hematopoietic cell line that expresses GFP-RAD52; assay: GFP-RAD52 foci formation in response to cisplatin; assay type: cell-based; settings: compound 2.5 μM
Experimental: GFP-RAD52 foci formation was measured in BCR-ABL1-positive BRCA1-deficient 32Dc13 murine hematopoietic cell line that expresses GFP-RAD52 (Cramer-Morales et al., 2013, Blood 122, 1293-1304). RAD51 foci formation was measured in parental 32Dc13.
Both cell lines were cultured in IMDM plus 10% FBS. […] After 4 h of incubation, the cells were treated with 3 μg/mL cisplatin for 16 h. Following cisplatin treatment, cytospins were prepared using polylysine coated slides (Thermo Scientific). DNA was counterstained with DAPI. To detect RAD51 foci, cells were stained with an anti-RAD51 antibody (Thermo Scientific), followed by a secondary antibody conjugated with AlexaFluor 594. RAD51 and GFP-RAD52 foci were visualized with an inverted Olympus IX70 fluorescence microscope equipped with a Cooke Sensicam QE camera (The Cooke Co., Auburn Hills, Mich., USA). Images from 25-60 cells/group were processed using SlideBook 3.0 (Intelligent Imaging Innovation).
In response to DNA damage, RAD52 accumulates in the nucleus forming distinct structures known as foci (Essers et al., 2002, EMBO J. 21, 2030-2037; Liu et al., 2000, EMBO Rep 1, 85-90). The foci represent RAD52 complexes with DNA repair intermediates. Inhibitors of RAD52 may decrease RAD52 foci formation by disrupting its interaction with DNA substrates.

[2] = test system: BRCA1/2-deficient cell lines; assay: Growth of BRCA1/2-deficient cell lines (summary over tested lines); assay type: cell-based, Human
Experimental: (§1) BxPC3 cells were kept in RPMI 1640 (ATCC) media supplemented with 10% FBS (Gibco). Capan-1/BxPC3 Capan-1 cells were kept in IMDM (ATCC) media containing 20% FBS (GIBCO). […] cells were kept in 48.5% RPMI1640 (ATCC), 48.5% MEGM (Clonetics/Lonza, MEGM kit, CC-3150) and 3% FBS (GIBCO) respectively. Cells in log-phase were harvested and 100 μl cell suspensions were replated in a 96-well plate with a final density of 4000 cells/well. After overnight growth, cells were treated with indicated concentrations of compounds. Media containing the invariant concentration of compounds were refreshed every 3 days until cells were finally lysed by 30 μl/well of Promega CellTiter-Glo reagents and read on a Promega GloMax 96 reader on day 10 (9 days exposure).
as §1, with “(Gibco);” for “(Gibco). Capan-1/BxPC3”, “(GIBCO);” for “(GIBCO).”, “exposure). Promega CellTiter-Glo protocol is available on the web: www dot promega dot com/resources/protocols/technical-bulletins/0/celltiter-glo-luminescent-cell-viability-assay-protocol/” for “exposure).”
MDA-MB-436 cells were cultured in RPMI+10% FBS. BRCA-proficient and BRCA-deficient cells were plated on day 0 in triplicate at 5,000 cells/well. […] Cells were counted on day 4 on a hemocytometer, using Trypan Blue exclusion, and immediately were plated in a clonogenic assay at a density of 500 cells/well in a 6 well plate, in RPMI+10% FBS. […]

COc1ccc(OC)c(Nc2nc(NCCCO)c3ccccc3n2)c1 [D-G23, 3-((2-((2,5-dimethoxyphenyl)amino)quinazolin-4-yl)amino)propan-1-ol]
DNA binding (salmon sperm DNA): did not bind DNA | fraction of cells with RAD52 foci (>5 foci) ([1]; cisplatin-treated, without inhibitor 38.7±10%): 19±0.4% | fraction of cisplatin-treated cells without foci ([1]; without inhibitor 48.4±6.2%): 57.6±0.5% | preferential inhibition of BRCA1/2-deficient cell lines (summary) [2]: preferentially inhibited at least two BRCA1/2-deficient cell lines
